Results from patent US20180126048A1, “NANOPARTICLE-MEDICATED GENETIC DELIVERY OF GROWTH INHIBITING GENES ON BALLOON ANGIOPLASTY TO SUPPRESS INTIMAL HYPERPLASIA” (Board of Education of the Vocational Schools in the County …, priority 2014, published 2018).

Tested on: left carotid artery
Assay: Glycerol infusion into the artery (cannulation) during carotid injury surgery
Type: in vivo, rat
Conditions: glycerol infused into the artery, compared to glycerol coated on a balloon
Experimental: In total, nine surgeries were performed on nine separate rats. The initial two surgeries represented the first control group—standard left carotid artery injury surgeries. The next two surgeries comprised the second control group—rats which received a standard left carotid artery injury surgery, modified slightly to include a glycerol coating without nanoparticles-carried plasmids on the catheter to test whether or not the substance (without the shRNA-encoding plasmid) had any noteworthy effects on the artery and/or the overall health of the animal before the nanoparticle treatment was delivered. The balloon was immersed in glycerol until 100 μL had covered its surface. Another two surgeries served as an experimental group to compare the method of delivery with the glycerol-coated balloon to a more direct method of delivery: infusion. After the arteriotomy was performed, the artery was cannulated (filled) with a syringe of 100 μL of 50% glycerol and flushed. The procedure then proceeded as previously described. The last three surgeries served as the experimental group utilizing the nanoparticles suspended in the glycerol that coated the balloon.
Intimal hyperplasia was further quantified using a software program, Image J, developed by the National Institutes of Health, which calculates the intimal area through image analysis. […]

OCC(O)CO [glycerol]
blood clot formation after infusion: blood clot formation
